Source: paper PMC7386434 (Organic letters, 2010)

Key:
Format in all cases: cell-based
[1] = tested on: human embryonic lung fibroblast (HLF) cells; experiment: Antiproliferative activity, HLF cells; settings: read-out: GI50 HLF
[2] = tested on: human lung cancer cell line (A549); experiment: Antiproliferative activity, A549 cells; settings: A549, read-out: GI50 A549
[3] = tested on: human embryonic kidney cell line (HEK293); experiment: Antiproliferative activity, HEK293 cells; settings: HEK293, read-out: GI50 HEK293
[4] = tested on: colorectal carcinoma cell line HCT-116; experiment: Antiproliferative activity, HCT-116 cells; settings: Homo sapiens, HCT-116, read-out: GI50 HCT-116

## CCCCCCCC(=O)SCC/C=C/[C@@H]1CC(=O)NCc2nc(cs2)C2=N[C@@](C)(CS2)C(=O)N[C@@H](C(C)C)C(=O)O1 [compound 1, largazole]
[1]
  GI50: 980 nM
[2]
  GI50: 320 nM
[3]
  GI50: 1360 nM
[4]
  GI50: 80 nM
